Assay results from patent US5189018A, “Method for reduction of central nervous system (CNS) edema resulting from head and spinal cord trauma” (Wayne State University, priority 1991, dated 1993).
Non-standard residues stand in square brackets, D forms with d. Residues, ends and D or L forms follow the SMILES beside them. Met(O2) = CS(=O)(=O)CC[C@H](N)C(=O)O

Key:
[1] = tested on: dementias; alcoholic inebriation; settings: human, in vivo; cited from earlier work
[2] = Toxicity of subcutaneous doses in the rat model; format: in vivo; settings: doses up to four times 27.2 ug (65-75 ug/kg), s.c.
[3] = tested on: blood brain barrier permeability; parameters: species or system rat (Wistar); settings: rat, in vivo
Excerpt: (§1) Applicant has developed a reliable physiologic model of potentially reversible, controlled fixed and closed-head injury in the laboratory rat (Wistar, Harlan Sprague-Dawley, Inc. Indianapolis, Ind.) that mimics many of the features of moderate concussion in humans. The model permits long term examination of subsequent cerebrovascular pathophysiological sequelae in conscious, unrestrained animals.
A rat anesthetized with halothane was mounted in a prone position on the test board and the head was fixed in position by means of the bite plate 30 over which the upper incisors were engaged as shown in FIG. 1c. […]
Brain vascular volume (BVS) and permeability were determined simultaneously utilizing modified methods of Rapoport, as described below (18). […] Moreover, estimates of BVS determined with either tracer are in agreement with published values obtained at more conventional time-intervals, e.g., two to ten minutes, after intravenous injection with an error of less than 4%. […]
The experimental protocol for the measurement of blood-to-brain transfer of diffusion-limited substances such as sucrose involved surgical implantation of catheters, one in a femoral vein, the other in the opposite femoral artery, under halothane anesthesia. […] The behavior of the animal was carefully monitored. […]

[4] = tested on: intracranial pressure; parameters: species or system rat (Wistar); settings: rat, in vivo
Excerpt: as §1
A rat anesthetized with halothane was mounted in a prone position on the test board and the head was fixed in position by means of the bite plate 30 over which the upper incisors were engaged as shown in FIG. 1c. The board angle of recline and the axis of pendulum rotation were adjustable to permit a flat or angled (3°-5° ) strike on the chosen head impact site. The optimum applied force/angle was selected from the nomogram. The pendulum was raised to the desired angle and released through a quick-release mechanism to fall into impact with the head. Forces developed by this means ranged from 60 to 85 pounds. […]
Intracranial pressures were determined in separate but identically treated animals. […] A Camino 431 miniature pressure sensor was inserted into the tubing and pressure was measured on Camino 420 Digital Pressure Monitor System. Intracranial pressure measurements were monitored from 5 minutes before and up to […] following head impaction. […]

[5] = tested on: cisplatin neuropathy; settings: in vivo; cited from earlier work
[6] = modified peptide less susceptible to enzymatic degradation, versus ACTH4-10; cited from earlier work

## CS(=O)(=O)CC[C@H](N)C(=O)N[C@@H](CCC(=O)O)C(=O)N[C@@H](Cc1c[nH]cn1)C(=O)N[C@@H](Cc1ccccc1)C(=O)N[C@H](CCCCN)C(=O)N[C@@H](Cc1ccccc1)C(=O)O [Organon 2766, Met (O2) Glu-His-Phe-D-Lys-Phe] (H-[Met(O2)]EHF[dK]F-OH)
[1]
  toxicity and side effects in humans: non-toxic and had no serious side effects
[2]
  lethality: not lethal
[3]
  permeability of the blood-brain barrier at high dose: dramatically increased
[4]
  ICP in uninjured animals: not different from control animals
[5]
  cytotoxic effect of cisplatin: without adversely effecting
  toxic effects: No toxic effects were noted
[6]
  half life in vivo: longer half life
